Measured values published in US8952157B2, “Apoptosis-inducing agents for the treatment of cancer and immune and autoimmune diseases” (AbbVie Inc., priority 2008, dated 2015).

Molecular target: GST-Bcl-2 (Homo sapiens (Human), UniProt P10415)
Experiment: Time Resolved-Fluorescence Resonance Energy Transfer (TR-FRET) Bcl-2 binding assay
Settings: GST-Bcl-2 1 nM, F-Bak peptide probe 100 nM, Tb-anti-GST antibody 1 nM; Ki by Wang's equation
Method in brief: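 Ki values derived from TR-FRET displacement of F-Bak peptide from GST-Bcl-2, detected with Tb-labelled anti-GST antibody (ex 340, em 520/495 nm). Compound dilution series started at 50 μM (2× starting concentration); room-temperature incubation 3 hours.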

Sequence of GST-Bcl-2 (P10415 whole entry): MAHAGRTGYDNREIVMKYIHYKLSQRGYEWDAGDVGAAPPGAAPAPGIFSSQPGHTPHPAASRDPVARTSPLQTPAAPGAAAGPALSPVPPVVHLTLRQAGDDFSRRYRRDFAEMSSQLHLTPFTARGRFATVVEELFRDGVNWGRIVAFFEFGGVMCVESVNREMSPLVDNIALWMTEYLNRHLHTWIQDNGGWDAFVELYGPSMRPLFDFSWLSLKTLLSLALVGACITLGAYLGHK

Structure (SMILES) | Ki
CC1(C)CCC(CN2CCN(c3ccc(C(=O)NS(=O)(=O)c4cnc(OCC5(F)CCN(CC(F)F)CC5)c(Cl)c4)c(Oc4cnc(N)c(Cl)c4)c3)CC2)=C(c2ccc(Cl)cc2)C1 [Example 403, 2-[(6-amino-5-chloropyridin-3-yl)oxy]-N-[(5-chloro-6-{[1-(2,2-difluoroethyl)-4-fluoropiperidin-4-yl]methoxy}pyridin-3-yl)sulfonyl]-4-(4-{[2-(4-chlorophenyl)-4,4-dimethylcyclohex-1-en-1-yl]methyl}piperazin-1-yl)benzamide] | 2.14 nM
CC1(C)CCC(CN2CCN(c3ccc(C(=O)NS(=O)(=O)c4ccc(OCC5(F)CCOCC5)c(Cl)c4)c(Oc4cnc(N)c(Cl)c4)c3)CC2)=C(c2ccc(Cl)cc2)C1 [Example 404, 2-[(6-amino-5-chloropyridin-3-yl)oxy]-N-({3-chloro-4-[(4-fluorotetrahydro-2H-pyran-4-yl)methoxy]phenyl}sulfonyl)-4-(4-{[2-(4-chlorophenyl)-4,4-dimethylcyclohex-1-en-1-yl]methyl}piperazin-1-yl)benzamide] | 0.069 nM
CC1(C)CCC(CN2CCN(c3ccc(C(=O)NS(=O)(=O)c4cnc(OCC5(F)CCN(C(CF)CF)CC5)c(C(F)(F)F)c4)c(Oc4cnc(N)c(Cl)c4)c3)CC2)=C(c2ccc(Cl)cc2)C1 [Example 405, 2-[(6-amino-5-chloropyridin-3-yl)oxy]-4-(4-{[2-(4-chlorophenyl)-4,4-dimethylcyclohex-1-en-1-yl]methyl}piperazin-1-yl)-N-{[6-({4-fluoro-1-[2-fluoro-1-(fluoromethyl)ethyl]piperidin-4-yl}methoxy)-5-(trifluoromethyl)pyridin-3-yl]sulfonyl}benzamide] | 0.354 nM
CC1(C)CCC(CN2CCN(c3ccc(C(=O)NS(=O)(=O)c4ccc(NCC5CCOCC5)c([N+](=O)[O-])c4)c(Oc4ccccc4-c4cn[nH]c4)c3)CC2)=C(c2ccc(Cl)cc2)C1 [Example 406, 4-(4-{[2-(4-chlorophenyl)-4,4-dimethylcyclohex-1-en-1-yl]methyl}piperazin-1-yl)-N-({3-nitro-4-[(tetrahydro-2H-pyran-4-ylmethyl)amino]phenyl}sulfonyl)-2-[2-(1H-pyrazol-4-yl)phenoxy]benzamide] | 0.166 nM
CC1(C)CCC(CN2CCN(c3ccc(C(=O)NS(=O)(=O)c4ccc(NCC5CCOCC5)c([N+](=O)[O-])c4)c(Oc4ccccc4-c4cccnc4N)c3)CC2)=C(c2ccc(Cl)cc2)C1 [Example 407, 2-[2-(2-aminopyridin-3-yl)phenoxy]-4-(4-{[2-(4-chlorophenyl)-4,4-dimethylcyclohex-1-en-1-yl]methyl}piperazin-1-yl)-N-({3-nitro-4-[(tetrahydro-2H-pyran-4-ylmethyl)amino]phenyl}sulfonyl)benzamide] | 0.946 nM
CC1(C)CCC(CN2CCN(c3ccc(C(=O)NS(=O)(=O)c4ccc(NCC5CCOCC5)c([N+](=O)[O-])c4)c(Oc4ccccc4-c4ccn[nH]4)c3)CC2)=C(c2ccc(Cl)cc2)C1 [Example 408, 4-(4-{[2-(4-chlorophenyl)-4,4-dimethylcyclohex-1-en-1-yl]methyl}piperazin-1-yl)-N-({3-nitro-4-[(tetrahydro-2H-pyran-4-ylmethyl)amino]phenyl}sulfonyl)-2-[2-(1H-pyrazol-5-yl)phenoxy]benzamide] | 1.16 nM
CC1(C)CCC(CN2CCN(c3ccc(C(=O)NS(=O)(=O)c4cnc(OCC5CCC(F)(F)CC5)c(Cl)c4)c(Oc4cnc(N)c(Cl)c4)c3)CC2)=C(c2ccc(Cl)cc2)C1 [Example 409, 2-[(6-amino-5-chloropyridin-3-yl)oxy]-N-({5-chloro-6-[(4,4-difluorocyclohexyl)methoxy]pyridin-3-yl}sulfonyl)-4-(4-{[2-(4-chlorophenyl)-4,4-dimethylcyclohex-1-en-1-yl]methyl}piperazin-1-yl)benzamide] | 0.686 nM
CC1(C)CC(c2ccc(Cl)cc2)=C(CN2CCN(c3ccc(C(=O)NS(=O)(=O)c4cnc(OCC5CCC(F)(F)CC5)c(Cl)c4)c(Oc4cc5cc[nH]c5cc4F)c3)CC2)CO1 [Example 410, N-({5-chloro-6-[(4,4-difluorocyclohexyl)methoxy]pyridin-3-yl}sulfonyl)-4-(4-{[4-(4-chlorophenyl)-6,6-dimethyl-5,6-dihydro-2H-pyran-3-yl]methyl}piperazin-1-yl)-2-[(6-fluoro-1H-indol-5-yl)oxy]benzamide] | < 0.01 nM
CC1(C)CCC(CN2CCN(c3ccc(C(=O)NS(=O)(=O)c4ccc(NCC5CCC(F)(F)CC5)c([N+](=O)[O-])c4)c(Oc4cc5cc[nH]c5cc4F)c3)CC2)=C(c2ccc(Cl)cc2)C1 [Example 411, 4-(4-{[2-(4-chlorophenyl)-4,4-dimethylcyclohex-1-en-1-yl]methyl}piperazin-1-yl)-N-[(4-{[(4,4-difluorocyclohexyl)methyl]amino}-3-nitrophenyl)sulfonyl]-2-[(6-fluoro-1H-indol-5-yl)oxy]benzamide] | 21.3 nM
